# System: thyroparathyroidectomized (TPTX) rats
# Assay: PTH-induced hypercalcemia in the TPTX rat model of bone resorption
# Assay type: in vivo
# Details: PTH treated TPTX male Sprague Dawley rats; perorally twice at 10 mg/kg (time 0 and 3 h after start of PTH infusion); serum at 6 hours
# Text: 9) Pharmacological Testing: PTH-Induced Hypercalcemia in the TPTX Rat Model of Bone Resorption
# In this in vivo model a stimulation of bone resorption is induced in thyroparathyroidectomized (TPTX) rats by the infusion of parathyroid hormone (PTH). The changes in bone resorption are monitored by measuring the serum calcium concentration which is directly related to the extent of bone resorption.
# Male Sprague Dawley rats (OFA-IFFA CREDO, France) weighting 150-200 g were thyroparathyroidectomized by the supplier. The rats were allowed free access to a standard commercial pelleted diet containing 7 g Ca/kg (UAR) and Eau de Volvic water. The success of thyroparathyroidectomy was tested by measuring serum calcium concentrations 8 days after operation in overnight fasted animals. Rats were considered as TPTX when the serum calcium level was <80 mg/l.
# For treatment with PTH, rat PTH(1-34) (Bachem) was dissolved in 0.15 M sodium chloride solution containing 2% Cys-HCl and delivered via osmotic minipumps (ALZET 2001 D) at 200 pmol/kg/h. […]
# Serum total calcium concentrations (=calcemia) were measured […] (Ciba-Corning) using a IEMS Labsystems microplate reader at 540 nm. The differences between the mean values of calcemia in the groups were analysed for variance and by Dunnett's test. The activity of the test compound was calculated as % effect according to the formula: [formula]
structure (smiles),measurement,value
"CCOC(=O)[C@H](CNC(=O)c1ccc(CCC(=O)NC2=NCCCN2)cc1)NS(=O)(=O)c1cccc2ccccc12.O=C(O)/C=C/C(=O)O [compound of formula I, ethyl (2S)-2-(naphthalene-1-sulfonylamino)-3-(4-(2-(1,4,5,6-tetrahydropyrimidin-2-ylcarbamoyl)ethyl)benzoylamino)propionate hemifumarate]",% effect on serum total calcium concentration (calcemia),−45%

# From US6900318B1, “1,4,5,6-tetrahydropyrimidine derivative as a vitronectin inhibitor” (Aventis Pharma Deutscland GmbH, priority 1999, dated 2005)
